The values below come from US10034885B2, “Corneal thickness modulating agent” (KOWA COMPANY, LTD., priority 2014, dated 2018).

Assay [1] relates to cornea. The assay is described as follows: Change of thickness of cornea in human, long-term eyedrop administration test. Type of assay: in vivo. Here is the method:
In a long-term administration test of Compound B in a subject having ophthalmologic disease, the influence on the cornea was examined (27-34 examples). In other words, in an group administered an eyedrop consisting of 0.4% Compound B twice a day for 52 weeks, the corneal thickness was measured using pachymeter before starting administration (week 0), 2 weeks after starting administration, 4 weeks after starting administration, and every 4 weeks thereafter. Measurement was performed five times, and the mean value calculated from the five measurements was adopted. In the measuring day, the drop was instilled in the eye at 9:00 and measurement was performed at 11:00. Note that at week 28, week 52, and during the follow-up (7-28 days after the last administration day), measurement was performed twice at 9:00 (at week 28 and week 52, it was done before the instillation) and 11:00. The upper part in FIG. 1 represents the result from the right eye, and the lower part in FIG. 1 represents the result from the left eye. The vertical axis represents changing values (μm) from week 0, and the horizontal axis represents the week for administration. At week 28, week 52, and during the follow-up (f/u), the measurement at 9:00 is represented with (0) and the measurement at 11:00 is represented with (2).

In assay [2] the target is Rho kinase. Conditions: according to Non-Patent Document 7; read-out: 50% inhibitory concentration (IC50) for Rho kinase; cited from earlier work.
The test system of assay [3] is rabbit corneal endothelial cell. Conditions: reported in Patent Document 1; cited from earlier work.
Assay [4] deals with Rho kinase. Conditions: disclosed in Patent Document 3; read-out: 50% inhibitory concentration (IC50) for Rho kinase; cited from earlier work.

The structures appear in SMILES notation. Where two headings read alike, the source gives them in different places.

Take `C[C@H]1CNCCCN1S(=O)(=O)c1cccc2cncc(F)c12` [Compound B, (S)-(−)-1-(4-fluoro-5-isoquinolinesulfonyl)-2-methyl-1,4-homopiperazine]: the “thickness of the cornea during the period for administration” value in assay [1] (human subjects with ophthalmologic disease, 0.4% eyedrop twice a day for 52 weeks, pachymeter, vs week 0) is recorded as “decreased”. Also, the “thickness of the cornea during the continued administration” value in assay [1] (human, 0.4% eyedrop twice a day for 52 weeks) is reported as “held at a nearly constant value”. Besides, the “thickness of the cornea before instillation (0)” value in assay [1] (human, week 28 and week 52, measured at 9:00 before instillation) is “had a tendency to return to the value before starting administration”. The “thickness of the cornea 2 hours after instillation (2)” value in assay [1] (human, week 28 and week 52, measured at 11:00) is “decreased”.
On to `CC(N)[C@H]1CC[C@H](C(=O)Nc2ccncc2)CC1` (single isomer, unassigned; (+)) [Compound Y-27632, (+)-trans-4-(1-aminoethyl)-1-(4-pyridylaminocarbonyl)cyclohexane], for which, in assay [2], the IC50 was 110 nM.
For `O=S(=O)(c1cccc2cnccc12)N1CCCNCC1` [fasudil, 1-(5-isoquinolinesulfonyl)-1,4-homopiperazine], the “adhesive property of a rabbit corneal endothelial cell” value in assay [3] is recorded as “enhanced”.
`CC1CNCCCN1S(=O)(=O)c1cccc2cncc(F)c12` (centres unmarked) [Compound A, 1-(4-fluoro-5-isoquinolinesulfonyl)-2-methyl-1,4-homopiperazine]: the IC50 in assay [4] was 200 nM.
In the case of `C[C@@H](N)c1ccc(C(=O)Nc2ccnc3[nH]ccc23)cc1` [Compound Y-33983, (R)—(+)—N-(1H-pyrrolo[2,3-b]pyridin-4-yl)-4-(1-aminoethyl)benzamide], the IC50 in assay [2] was 3.6 nM.
